Patent publication US10844032B2, “Substituted benzofuran, benzothiophene and indole Mcl-1 inhibitors” (Vanderbilt University, priority 2012, dated 2020)

Biological target: recombinant Mcl-1 (residues 172-327) (Homo sapiens (Human), UniProt Q07820)
Assay: Bak peptide fluorescence polarization anisotropy competition assay, Mcl-1
Type: binding
Details: not given

Sequence of recombinant Mcl-1 (residues 172-327) (Q07820 172-327): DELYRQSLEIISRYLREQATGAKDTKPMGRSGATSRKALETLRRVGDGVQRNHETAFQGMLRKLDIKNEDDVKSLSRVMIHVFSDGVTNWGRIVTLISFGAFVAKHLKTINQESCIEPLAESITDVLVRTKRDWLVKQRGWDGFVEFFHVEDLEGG

Compound | Ki
Cc1cccc(S(=O)(=O)NC(=O)c2c(CCCOc3cc(C)c(Cl)c(C)c3)c3ccc(Cl)cc3n2Cc2cccnc2)c1 [Example 273, 6-chloro-3-(3-(4-chloro-3,5-dimethylphenoxy)propyl)-1-(pyridin-3-ylmethyl)-N-(m-tolylsulfonyl)-1H-indole-2-carboxamide] | 101 to 299 nM

Same assay, conditions: Table 2, Ki range; FITC-Bak peptide 10 nM, Mcl-1 14 nM; read-out: Ki for inhibition of Mcl-1

Compound | Ki
Cc1cc(OCCCc2c(C(=O)NS(=O)(=O)CCNC(=O)c3cccc(C(F)(F)F)c3)[nH]c3cc(Cl)ccc23)cc(C)c1Cl [Example 255, 6-chloro-3-(3-(4-chloro-3,5-dimethylphenoxy)propyl)-N-((2-(3-(trifluoromethyl)benzamido)ethyl)sulfonyl)-1H-indole-2-carboxamide] | ≤ 100 nM
Cc1cc(OCCCc2c(C(=O)NS(=O)(=O)c3ccc(CO)o3)[nH]c3cc(Cl)ccc23)cc(C)c1Cl [Example 260, -chloro-3-(3-(4-chloro-3,5-dimethylphenoxy)propyl)-N-((5-(hydroxymethyl)furan-2-yl)sulfonyl)-1H-indole-2-carboxamide] | ≤ 100 nM
COC(=O)c1cc(S(=O)(=O)NC(=O)c2[nH]c3cc(Cl)ccc3c2CCCOc2cc(C)c(Cl)c(C)c2)oc1C [Example 264, methyl 5-(N-(6-chloro-3-(3-(4-chloro-3,5-dimethylphenoxy)propyl)-1H-indole-2-carbonyl)sulfamoyl)-2-methylfuran-3-carboxylate] | ≤ 100 nM

The remaining lines, values ahead:

Ki | Compound
≤ 100 nM | Cc1cc(OCCCc2c(C(=O)NS(=O)(=O)c3ccc(C(=O)O)o3)[nH]c3cc(Cl)ccc23)cc(C)c1Cl [Example 261]
≤ 100 nM | Cc1cc(OCCCc2c(C(=O)NS(=O)(=O)c3ccc(C(=O)O)n3C)[nH]c3cc(Cl)ccc23)cc(C)c1Cl [Example 266, 5-(N-(6-chloro-3-(3-(4-chloro-3,5-dimethylphenoxy)propyl)-1H-indole-2-carbonyl)sulfamoyl)-1-methyl-1H-pyrrole-2-carboxylic acid]

Same assay, conditions: read-out: Ki for inhibition of Mcl-1

Compound | Ki
Cc1cc(OCCCc2c(C(=O)NS(=O)(=O)CCCN3C(=O)c4ccccc4C3=O)[nH]c3cc(Cl)ccc23)cc(C)c1Cl [Example 256, 6-chloro-3-(3-(4-chloro-3,5-dimethylphenoxy)propyl)-N-((3-(1,3-dioxoisoindolin-2-yl)propyl)sulfonyl)-1H-indole-2-carboxamide] | 501 to 999 nM
Cc1cc(OCCCc2c(C(=O)NS(=O)(=O)CCCNC(=O)CCc3cc(-c4ccccc4)n[nH]3)[nH]c3cc(Cl)ccc23)cc(C)c1Cl [Example 257, 6-chloro-3-(3-(4-chloro-3,5-dimethylphenoxy)propyl)-N-((3-(3-(3-phenyl-1H-pyrazol-5-yl)propanamido)propyl)sulfonyl)-1H-indole-2-carboxamide] | 301 to 500 nM
Cc1cc(OCCCc2c(C(=O)NS(=O)(=O)CCCNC(=O)c3cccn3Cc3ccccc3)[nH]c3cc(Cl)ccc23)cc(C)c1Cl [Example 258, N-((3-(1-benzyl-1H-pyrrole-2-carboxamido)propyl)sulfonyl)-6-chloro-3-(3-(4-chloro-3,5-dimethylphenoxy)propyl)-1H-indole-2-carboxamide] | 101 to 299 nM
Cc1cc(OCCCc2c(C(=O)NS(C)(=O)=O)n(C)c3cc(Cl)ccc23)cc(C)c1Cl [Example 268, 6-chloro-3-(3-(4-chloro-3,5-dimethylphenoxy)propyl)-1-methyl-N-(methylsulfonyl)-1H-indole-2-carboxamide] | 501 to 999 nM
Cc1cc(OCCCc2c(C(=O)NS(=O)(=O)c3ccccc3)n(C)c3cc(Cl)ccc23)cc(C)c1Cl [Example 269, 6-chloro-3-(3-(4-chloro-3,5-dimethylphenoxy)propyl)-1-methyl-N-(phenylsulfonyl)-1H-indole-2-carboxamide] | 301 to 500 nM
Cc1cc(OCCCc2c(C(=O)NS(=O)(=O)c3ccc(OCc4ccccc4)cc3)n(C)c3cc(Cl)ccc23)cc(C)c1Cl [Example 270, N-((4-(benzyloxy)phenyl)sulfonyl)-6-chloro-3-(3-(4-chloro-3,5-dimethylphenoxy)propyl)-1-methyl-1H-indole-2-carboxamide] | 301 to 500 nM
Cc1cc(OCCCc2c(C(=O)NS(C)(=O)=O)n(Cc3cccnc3)c3cc(Cl)ccc23)cc(C)c1Cl [Example 271, 6-chloro-3-(3-(4-chloro-3,5-dimethylphenoxy)propyl)-N-(methylsulfonyl)-1-(pyridin-3-ylmethyl)-1H-indole-2-carboxamide] | 301 to 500 nM
Cc1cc(OCCCc2c(C(=O)NS(=O)(=O)c3ccccc3)n(Cc3cccnc3)c3cc(Cl)ccc23)cc(C)c1Cl [Example 272, 6-chloro-3-(3-(4-chloro-3,5-dimethylphenoxy)propyl)-N-(phenylsulfonyl)-1-(pyridin-3-ylmethyl)-1H-indole-2-carboxamide] | 101 to 299 nM
Cc1cc(OCCCc2c(C(=O)NS(=O)(=O)c3ccc(OCc4ccccc4)cc3)n(Cc3cccnc3)c3cc(Cl)ccc23)cc(C)c1Cl [Example 274, N-((4-(benzyloxy)phenyl)sulfonyl)-6-chloro-3-(3-(4-chloro-3,5-dimethylphenoxy)propyl)-1-(pyridin-3-ylmethyl)-1H-indole-2-carboxamide] | 1000 to 9990 nM
Cc1cc(OCCCc2c(C(=O)NS(=O)(=O)CCNC(=O)C3CCCCC3)n(Cc3cccnc3)c3cc(Cl)ccc23)cc(C)c1Cl [Example 275, 6-chloro-3-(3-(4-chloro-3,5-dimethylphenoxy)propyl)-N-((2-(cyclohexanecarboxamido)ethyl)sulfonyl)-1-(pyridin-3-ylmethyl)-1H-indole-2-carboxamide] | 101 to 299 nM
Cc1cc(OCCCc2c(C(=O)NS(=O)(=O)CCNC(=O)c3cccc(Oc4ccccc4)c3)n(Cc3cccnc3)c3cc(Cl)ccc23)cc(C)c1Cl [Example 276, 6-chloro-3-(3-(4-chloro-3,5-dimethylphenoxy)propyl)-N-((2-(3-phenoxybenzamido)ethyl)sulfonyl)-1-(pyridin-3-ylmethyl)-1H-indole-2-carboxamide] | 301 to 500 nM

Continued, values first:

Ki | Compound
101 to 299 nM | COC(=O)c1ccc(S(=O)(=O)NC(=O)c2[nH]c3cc(Cl)ccc3c2CCCOc2cc(C)c(Cl)c(C)c2)o1 [Example 259]
101 to 299 nM | Cc1cc(OCCCc2c(C(=O)NS(=O)(=O)c3ccc(C(=O)N4CCOCC4)o3)[nH]c3cc(Cl)ccc23)cc(C)c1Cl [Example 262, 6-chloro-3-(3-(4-chloro-3,5-dimethylphenoxy)propyl)-N-((5-(morpholine-4-carbonyl)furan-2-yl)sulfonyl)-1H-indole-2-carboxamide]
101 to 299 nM | Cc1cc(OCCCc2c(C(=O)NS(=O)(=O)c3ccc(C(=O)NC4CCOCC4)o3)[nH]c3cc(Cl)ccc23)cc(C)c1Cl [Example 263, 6-chloro-3-(3-(4-chloro-3,5-dimethylphenoxy)propyl)-N-((5-((tetrahydro-2H-pyran-4-yl)carbamoyl)furan-2-yl)sulfonyl)-1H-indole-2-carboxamide]
101 to 299 nM | COC(=O)c1ccc(S(=O)(=O)NC(=O)c2[nH]c3cc(Cl)ccc3c2CCCOc2cc(C)c(Cl)c(C)c2)n1C [Example 265, methyl 5-(N-(6-chloro-3-(3-(4-chloro-3,5-dimethylphenoxy)propyl)-1H-indole-2-carbonyl)sulfamoyl)-1-methyl-1H-pyrrole-2-carboxylate]
101 to 299 nM | Cc1cc(OCCCc2c(C(=O)NS(=O)(=O)c3ccc(C(=O)N4CCOCC4)n3C)[nH]c3cc(Cl)ccc23)cc(C)c1Cl [Example 267, 6-chloro-3-(3-(4-chloro-3,5-dimethylphenoxy)propyl)-N-((1-methyl-5-(morpholine-4-carbonyl)-1H-pyrrol-2-yl)sulfonyl)-1H-indole-2-carboxamide]
